Starred links: 1 amine or outer side, 2 acyl side, 3 side chain; linkers in the order of their positions; H or OH if unused. Positions of bridges follow the written chain, without caps; N, C: chain ends. Non-standard residues stand in square brackets, D forms with d. Residues, ends and D or L forms follow the SMILES beside them. Chains are numbered I, II in the order given. Actinocin(9to1) = Cc1c2oc3c(C)ccc(C(=O)[*:1])c3nc-2c(C(=O)[*:2])c(N)c1=O; NMeV = CN[C@H](C(=O)O)C(C)C; Sar = CNCC(=O)O
Key:
Cyr61 [1] = experiment: Cyr61 mRNA/protein expression in MDA-MB-453 cells (Northern/Western blot); type: cell-based, human; conditions: for effect on DHT induction of Cyr61: co-treatment with 1 nM DHT
Cyr61 [2] = experiment: Cyr61 mRNA/protein expression in MCF-7 cells (Northern/Western blot); conditions: for block of 17β-estradiol upregulation of Cyr61: co-treatment with 17β-estradiol
Cyr61 [3] = experiment: Cyr61 mRNA expression in MDA-MB-231 cells (Northern blot); type: cell-based, human; conditions: AR- MDA-MB-231 cells
Method: (§1) Incubation and analysis were performed according to techniques described in Example 1.
(§2) Total cellular RNA was isolated from cultured adenocarcinoma cells by guanidium isothiocynate lysis followed by phenol/chloroform extraction.

Cyr61 [4] = experiment: Cyr61 mRNA expression in ZR-75-1 cells (Northern blot); type: cell-based, human
Method: as §1, §2

Cyr61 [5] = experiment: Cyr61 mRNA/protein expression in T47D cells (Northern/Western blot)

CC(C)(O)C(=O)Nc1ccc([N+](=O)[O-])c(C(F)(F)F)c1 [2-OH flutamide]
effect on DHT induction of Cyr61 (Cyr61 [1]): completely abrogated

C[C@]12CC[C@@H]3c4ccc(O)cc4CC[C@H]3[C@@H]1CC[C@@H]2O [17β-estradiol]
upregulation of Cyr61 mRNA (Cyr61 [2]): upregulation
effects of EGF on mRNA transcription (Cyr61 [2]; with EGF): stimulates

C[C@]12CCC(=O)C[C@@H]1CC[C@@H]1[C@@H]2CC[C@]2(C)[C@@H](O)CC[C@@H]12 [DHT]
expression of Cyr61 (Cyr61 [3]): not enhanced
maximum expression of Cyr61 mRNA and protein (Cyr61 [1]): 8 fold
time of maximum expression of Cyr61 mRNA and protein (Cyr61 [1]): ≤ 0.5 h
concentration of maximal expression of Cyr61 mRNA and protein (Cyr61 [1]; dose-dependent): 1.0 nM
EC50 (Cyr61 [1]; read-out: EC50 for upregulation of Cyr61 mRNA and protein): ~0.3 nM
induction of Cyr61 (Cyr61 [4]): lack of induction

CCC(=O)[C@@]1(C)CC[C@H]2[C@@H]3CCC4=CC(=O)CCC4=C3CC[C@@]21C [R5020]
induction of Cyr61 mRNA transcription (Cyr61 [5]): dose-dependent manner
effects of EGF on mRNA transcription (Cyr61 [5]; with EGF): stimulates

Cc1c2oc3c(C)ccc(C(=O)N[C@@H]4C(=O)N[C@H](C(C)C)C(=O)N5CCC[C@H]5C(=O)N(C)CC(=O)N(C)[C@@H](C(C)C)C(=O)O[C@@H]4C)c3nc-2c(C(=O)N[C@@H]2C(=O)N[C@H](C(C)C)C(=O)N3CCC[C@H]3C(=O)N(C)CC(=O)N(C)[C@@H](C(C)C)C(=O)O[C@@H]2C)c(N)c1=O [actinomycin D] (I: T[dV]P[Sar][NMeV] / II: T[dV]P[Sar][NMeV]; ester I:1-I:C, II:1-II:C; linker I:N-II:N via Actinocin(9to1))
block of 17β-estradiol upregulation of Cyr61 (Cyr61 [2]): fully blocked
effect on DHT induction of Cyr61 (Cyr61 [1]): completely blocked
block of R5020 upregulation of Cyr61 (Cyr61 [5]; co-treatment with R5020): fully blocked

C[C@@H]1C[C@@H]([C@H](O)CC2CC(=O)NC(=O)C2)C(=O)[C@@H](C)C1 [cycloheximide]
block of 17β-estradiol upregulation of Cyr61 (Cyr61 [2]): not
Cyr61 mRNA on co-treatment with DHT compared to DHT treatment alone (Cyr61 [1]): significant overexpression
effect on DHT induction of Cyr61 (Cyr61 [1]): not observed

EGF: epidermal growth factor (NSDSECPLSHDGYCLHDGVCMYIEALDKYACNCVVGYIGERCQYRDLKWWELR; UniProt P01133 971-1023, looked up)
expression of Cyr61 (Cyr61 [3]): rapidly induced
time to maximal levels of Cyr61 mRNA (Cyr61 [4]): ≤ 0.5 h
